According to PubChem BioAssay AID463204 (Broad Institute, 2010):
The source made the active and inactive calls.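 How the source made its calls: active means AC50 no more than ten times the top concentration tested, that is within one log above it; inconclusive means flat curve fit with activity between 30% and 70%, or invalid poor fit; inactive means AC50 beyond ten times the top tested dose.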

Tested on: S. cerevisiae Mot1-301 ts growth rescue, BacTiter-Glo ATP luminescence
Test: growth rescue of Mot1-301 ts yeast, confirmation, SUMOylation pathway inhibitor project, whole organism, S. cerevisiae, Mot1-301 ts mutant, luminescence, dose retest (AID 463204);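 further: growth at restrictive 38.5 degrees C of Mot1-301 OY566 strain; actives raise luminescence by restoring growth of the ts mutant at high temperature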

Compound	AC50
CCCCn1c(N)c(N(Cc2ccccc2OC)C(=O)c2c(CC)noc2C)c(=O)[nH]c1=O	> 42 µM (inactive)
COc1ccc(C(=O)OCC(=O)c2ccc(C)c(S(=O)(=O)N3CCOCC3)c2)cc1OC	> 42 µM (inactive)
Cc1cccn2c(=O)c3cc(C(=O)NCc4cccnc4)c(=N)n(C(C)C)c3nc12	> 42 µM (inactive)
O=C(O)c1ccc(N=C2NC(=O)C(CO)(CO)S2)cc1	> 42 µM (inactive)
Cc1c(C2(O)CCCCC2)[nH]c2ccc(C#N)cc12	41.9 µM
CC(NC(=O)c1cnc2n(c1=O)CCS2)c1ccccc1 (centres undefined)	> 42 µM (inactive)
COc1ccccc1-n1nnnc1SCC(=O)Nc1ccc(C)c(N)c1	> 42 µM (inactive)
O=c1c2c3c(sc2n2cnnc2n1-c1ccccc1)N(Cc1ccccc1)CCC3	> 42 µM (inactive)
COc1ccccc1N1CCN(C(=O)C(=O)N/N=C/c2ccccc2F)CC1	> 42 µM (inactive)
COc1cccc(N2CCN(C3CCCC(C)C3)CC2)c1 (centres undefined)	> 42 µM (inactive)
Cc1c(Cl)cccc1NC(=S)NCCCN(C)C	> 42 µM (inactive)
COc1cc(NC(=O)c2cc(Cl)ccc2Cl)ccc1-c1cc2ccccc2oc1=O	> 42 µM (inactive)
CC(=O)N1c2ccc([N+](=O)[O-])cc2NC(=O)CC1C (centres undefined)	> 42 µM (inactive)
O=[N+]([O-])c1c(NCCCO)cc(Sc2nc3ccccc3s2)c2nonc12	40 µM
CC1(C)CC(=O)c2cnc(NC(=O)CSc3nc4ccccc4o3)nc2C1	> 42 µM (inactive)
CC(C)[C@H](NC(=O)C1(c2ccccc2)CCN(C(=O)OC(C)(C)C)CC1)C(=O)O	> 42 µM (inactive)
CC(=O)c1cccc(NC(=O)CNC(=O)c2sc3ccccc3c2Cl)c1	> 42 µM (inactive)
COc1cc(CNCCN2CCOCC2)ccc1OCc1ccccc1Cl	> 42 µM (inactive)
CC1CCN(CCCCOc2cccc(Br)c2)CC1	> 42 µM (inactive)
Cc1nc(NCCN2CCOCC2)c2nnn(Cc3c(F)cccc3Cl)c2n1	> 42 µM (inactive)
Nc1ccc(Oc2ccccc2-c2ccccc2)cc1	20.8 µM
C=CCNc1nnc(SC2CC(=O)N(c3ccc(OCCC)cc3)C2=O)s1 (centres undefined)	4.49 µM
COc1cc(C(=O)Nc2sc3c(c2C(=O)O)CCC(C)C3)cc(OC)c1OC (centres undefined)	> 42 µM (inactive)
Cc1ccc(S(=O)(=O)N2CCOCC2)cc1NC(=O)COC(=O)CCC(=O)c1cccs1	> 42 µM (inactive)
Cn1cccc1CC(=O)N/N=C/c1cccc([N+](=O)[O-])c1	> 42 µM (inactive)

Compound	AC50
CN(Cc1ccc(C(C)(C)C)cc1)C(=O)c1ccc2c(=O)n3c(nc2c1)CCC3	> 42 µM (inactive)
CCCC(O)(c1ccc(Br)cc1)C(CN1CCOCC1)c1ccc(Cl)cc1 (centres undefined)	5.13 µM
Cc1ccc(S(=O)(=O)/N=C(/Nc2ccc([N+](=O)[O-])cc2[N+](=O)[O-])c2ccccc2)cc1	15.8 µM
CCOc1ccc(NC(=O)C2CC(=O)N3CCCN=C3S2)cc1 (centres undefined)	> 42 µM (inactive)
CC1CC(C)(C)N2C(=O)C3(Nc4ccccc4S3)c3cccc1c32 (centres undefined)	3.15 µM
Cc1ccc2nc3c(cc(C(=O)NCCN4CCOCC4)c(=N)n3CCCN3CCOCC3)c(=O)n2c1	> 42 µM (inactive)
COc1nc(OC)nc(N2CCC(C(=O)NC3CCCCCC3)CC2)n1	> 42 µM (inactive)
COC(=O)c1cc(Cl)c(NC(=O)C(C)C)cc1OC	> 42 µM (inactive)
C/C(=N/OCO/N=C(\C)c1ccccc1)c1ccccc1	> 42 µM (inactive)
COCC(=O)NNC(=O)c1ccccc1OC	> 42 µM (inactive)
Cc1ccccc1NC(=O)COC(=O)C1C2CC3OC(=O)C1C3C2 (centres undefined)	> 42 µM (inactive)
CC1=CS(=O)(=O)CC1Sc1ncn[nH]1 (centres undefined)	> 42 µM (inactive)
COC(=O)c1ccc(NC(=O)CCN2CCN(c3ccccc3)CC2)cc1	> 42 µM (inactive)
COc1cccc(-n2nnc3c(=O)n(CC(=O)N4CCCc5ccccc54)cnc32)c1	> 42 µM (inactive)
Cc1cc([N+](=O)[O-])nn1CC(=O)NNC(=S)Nc1ccc([N+](=O)[O-])cc1	> 42 µM (inactive)
CN(C)C(CNC(=O)CNC(=O)c1ccc(Br)cc1)c1ccccc1 (centres undefined)	> 42 µM (inactive)
COC(=O)c1ccc(N2C(=O)CC(NCc3ccccc3)C2=O)cc1 (centres undefined)	> 42 µM (inactive)
COc1ccc(NC(=O)CCC(=O)Nc2nnc(C(F)(F)F)s2)c(OC)c1	> 42 µM (inactive)
NNc1nc2sc3c(c2c(=O)n1-c1ccccc1)CCCC3	> 42 µM (inactive)
CCCc1nn2c(=O)cc(CSCC(=O)Nc3ccc(OC)cc3)nc2s1	> 42 µM (inactive)
CCOC(=O)c1c(N)sc(C(=O)N2CCCC(C(N)=O)C2)c1C (centres undefined)	> 42 µM (inactive)
Oc1c(Br)cc(Cl)cc1C=Nc1ccccc1Br	4.15 µM
C=C1C2C[C@@]3([C@@H]1O)[C@@H](C[C@@H]2O)[C@@]12C4[C@@H]3C[C@@H]1[C@@](C)(CC[C@@H]2O)CN4CC	> 42 µM (inactive)
N#Cc1ccc(Oc2ccc(S(=O)(=O)N3CCCCC3)cn2)cc1	> 42 µM (inactive)
COc1ccc(S(=O)(=O)N2CCN(c3ccc(F)cc3)CC2)cc1C(=O)N1CCOCC1	> 42 µM (inactive)

Compound	AC50
N#Cc1c(Cn2cncn2)nc(=O)n(-c2ccc(Cl)cc2)c1N	> 42 µM (inactive)
CC(=O)C(C(c1ccccc1)c1c[nH]c2ccccc12)[N+](=O)[O-] (centres undefined)	33 µM
CCOP(=O)(OCC)C(NC(=O)c1cccc(C)c1)C(Cl)(Cl)Cl (centres undefined)	> 42 µM (inactive)
Oc1c(Cl)cc(Cl)c(Cl)c1Cc1c(O)c(Cl)cc(Cl)c1Cl	0.84 µM
CC(C)C1=CC(=Nc2ccc(S(N)(=O)=O)cc2)C=C(C(C)C)C1=O	> 42 µM (inactive)
Cc1ccc(SCC(=O)O/N=C(\N)c2cccc([N+](=O)[O-])c2)cc1	> 42 µM (inactive)
COc1ccc(N2CCN(C(=O)Cn3nnc(-c4ccc(OC)c(OC)c4)n3)CC2)cc1	> 42 µM (inactive)
COc1cc2c(cc1NC(=O)c1cccnc1)oc1ccccc12	> 42 µM (inactive)
O=C1CCc2cc(S(=O)(=O)N3CCC(C(=O)NC4CCCC4)CC3)ccc2N1	> 42 µM (inactive)
CC(C)CCNC(=O)Nc1ccc2c(c1)N(C)C(=O)CS2	> 42 µM (inactive)
CCC(C)(C(=O)NC1CCCC1)N(C(=O)c1ccccn1)c1ccc(C)cc1 (centres undefined)	> 42 µM (inactive)
C/C=C/C(=O)N1c2ccc(C)cc2C(C)=CC1(C)C	> 42 µM (inactive)
COc1ccc(C(=O)CSc2nnc3ccc(-c4ccccn4)nn23)cc1	> 42 µM (inactive)
COc1ccc(NC(=O)c2ccccc2NC(=O)NC2CCCCC2)cc1	> 42 µM (inactive)
N/C(Cn1cncn1)=N\NC(=O)c1ccc(Cl)cc1Cl	> 42 µM (inactive)
CC(C)CC(=O)Nc1ccc(C(=O)CN2C(=O)NC3(CCOc4ccccc43)C2=O)cc1 (centres undefined)	> 42 µM (inactive)
CN(C)/C(CN1CCCCC1)=C1\N=C(c2ccccc2)OC1=O	> 42 µM (inactive)
O=C(Nc1ccc2nc(-c3ccc4nc[nH]c4c3)[nH]c2c1)c1cccs1	> 42 µM (inactive)
O=C(c1cc2c(ccc3ccccc32)oc1=O)N1CCCC1	> 42 µM (inactive)
O=C(CSc1nnc(CNC(=O)c2ccco2)o1)Nc1nc2ccccc2s1	> 42 µM (inactive)
Cc1ccc(S(=O)(=O)Oc2ccc(/C=C3\N=C(c4cccc(C)c4)OC3=O)cc2)cc1	> 42 µM (inactive)
Cc1ccc(CNC(=O)c2ccc(N3CCC4(CC3)CC(c3ccccc3)=NO4)c(NC(=O)c3cccc(C)c3)c2)cc1	> 42 µM (inactive)
Fc1cccc(NC(=S)N2CCn3cccc3C2c2cccnc2)c1 (centres undefined)	> 42 µM (inactive)
O=C(O)c1ccc(COc2c(F)c(F)cc(F)c2F)cc1	> 42 µM (inactive)
CC1=Nc2ccc(C)cc2N(Cc2ccccc2)C(=O)C1	> 42 µM (inactive)

Compound	AC50
CCCCOC(=O)/C(=C/C=C/c1ccccc1)NC(=O)c1ccccc1	> 42 µM (inactive)
Cc1ccc(N=c2ssnc2Cl)cc1	3.13 µM
Cc1ccc(-c2nn(-c3ccccc3)cc2C(=O)N2CCN(c3ccccn3)CC2)cc1	> 42 µM (inactive)
O=S(=O)(c1ccc(C2CCCCC2)cc1)N1CCCC1	> 42 µM (inactive)
COc1cccc(NC(=O)CN(C)C(=O)c2ccccc2OCc2c(C)noc2C)c1	> 42 µM (inactive)
Cc1cc2c(C)ccc(C)c2nc1SCC(=O)c1cccs1	> 42 µM (inactive)
Cc1nc2ccc(S(=O)(=O)NC(CC(C)C)C(=O)O)cc2s1 (centres undefined)	> 42 µM (inactive)
O=C1c2ccccc2NC(c2ccccc2O)N1O (centres undefined)	> 42 µM (inactive)
CCC(CC)C(=O)Nc1ccc(S(=O)(=O)Nc2nccs2)cc1	> 42 µM (inactive)
COc1ccc(C)cc1NC(=O)C12CCC(C)(C(=O)O1)C2(C)C (centres undefined)	> 42 µM (inactive)
CN1CCN(CC(=O)N2c3ccccc3C(=O)Nc3cccnc32)CC1	> 42 µM (inactive)
COc1cc(COc2ccc3c(C)c(CC(=O)O)c(=O)oc3c2C)cc(OC)c1OC	> 42 µM (inactive)
Cc1ccc(-n2nnnc2SCC#N)cc1	> 42 µM (inactive)
CN(C)c1ccc(NC(=O)CSc2nc(N)c(C(=O)Nc3ccc(N(C)C)cc3)s2)cc1	> 42 µM (inactive)
O=[N+]([O-])c1cccc(-c2nc3ccc([N+](=O)[O-])cc3[nH]2)c1	> 42 µM (inactive)
Cc1nc(-c2ccncc2)sc1C(=O)Nc1ccc(Br)cc1	> 42 µM (inactive)
O=C(COC(=O)/C=C/c1ccco1)Nc1ncc(C(F)(F)F)cc1Cl	> 42 µM (inactive)
CC(=O)Nc1ccc(CN2CCCC(CO)(Cc3cccc(Cl)c3)C2)cc1 (centres undefined)	> 42 µM (inactive)
CCCN1CCN(CCCNC(=O)CCn2nc(-c3ccccc3)ccc2=O)CC1	> 42 µM (inactive)
CCOC(=O)N1CCN(C(=O)c2ccc(OC)c(OC)c2)CC1	> 42 µM (inactive)
CCN(CC)S(=O)(=O)c1ccc(N2CCCC2)c(C(=O)OCC(=O)Nc2cc(C)on2)c1	> 42 µM (inactive)
Cn1c(CN2CCOCC2)nnc1SCC(N)=O	> 42 µM (inactive)
CCOC(=O)CCN(c1ccccc1)S(=O)(=O)c1ccc(-c2ccc(=O)[nH]n2)s1	> 42 µM (inactive)
Cc1cccc(NC(=S)NCc2ccco2)c1C	> 42 µM (inactive)
